# Experimental data reported in patent US20100210597A1, “C21-Deoxy Ansamycin Derivatives as Antitumor Agents” (priority 2007, published 2010).
# What was measured:
# [1] = test system: DU145; assay: Monolayer proliferation assay (modified propidium iodide), DU145; type: cell-based, human; details: average of 2 experiments
# Experimental: (§1) In vitro evaluation of compounds for anticancer activity in a panel of human tumour cell lines in a monolayer proliferation assay was carried out at the Oncotest Testing Facility, Institute for Experimental Oncology, Oncotest GmbH, Freiburg.
# (§2) The Oncotest cell lines are established from human tumor xenografts as described by Roth et al., (1999). The origin of the donor xenografts is described by Fiebig et al., (1999). Other cell lines are either obtained from the NCl (DU145, MCF-7) or purchased from DSMZ, Braunschweig, Germany.
# (§3) All cell lines, unless otherwise specified, are grown at 37° C. in a humidified atmosphere (95% air, 5% CO2) in a ‘ready-mix’ medium containing RPMI 1640 medium, 10% fetal calf serum, and 0.1 mg/mL gentamicin (PAA, Cölbe, Germany).
# (§4) A modified propidium iodide assay was used to assess the effects of the test compound(s) on the growth of six human tumour cell lines (Dengler et al., (1995)).
# (§5) Briefly, cells are harvested from exponential phase cultures by trypsinization, counted and plated in 96 well flat-bottomed microtitre plates at a cell density dependent on the cell line (5-10.000 viable cells/well). After 24 h recovery to allow the cells to resume exponential growth, 0.010 mL of culture medium (6 control wells per plate) or culture medium containing macbecin were added to the wells. Each concentration is plated in triplicate. Compounds were applied in two concentrations (0.001 mM and 0.01 mM). Following 4 days of continuous exposure, cell culture medium with or without test compound was replaced by 0.2 mL of an aqueous propidium iodide (P1) solution (7 mg/L). To measure the proportion of living cells, cells were permeabilized by freezing the plates. After thawing the plates, fluorescence was measured using the Cytofluor 4000 microplate reader (excitation 530 nm, emission 620 nm), giving a direct relationship to the total number of viable cells.
# (§6) Growth inhibition is expressed as treated/control×100 (% T/C).
# (§7) In vitro evaluation of the test compound, 20, for anticancer activity in a panel of human tumour cell lines in a monolayer proliferation assay was carried out as described in the general methods using a modified propidium iodide assay.
# [2] = Whole blood cleavage assay, mouse blood; type: in vitro ADME; details: 10 uM, 37° C., two hours
# Experimental: Human whole blood (single donor, batch HBE4534) was obtained from First Link UK Ltd. Mouse whole blood (pool of 10, batch 07-2470) was obtained from Harlan UK. Blood was collected into tubes containing EDTA as anticoagulant and shipped on ice. Blood was used on the day of arrival. In the case of human whole blood incubations were undertaken both on the fresh blood and also after freezing the blood followed by thawing. Control compounds were Lidocaine, Bisacodyl and Simvastatin.
# All test compounds were incubated at 10 uM in whole blood at 37° C. At selected time points, 0.1 ml of blood was mixed with 0.3 ml of acetonitrile and vortexed immediately. All samples were centrifuged and supernatant were diluted with same volume of deionized water. […] For 20 sample analysis, mass spectrometry monitored both 17 and 20. […]
# The Half life, for the disappearance of 20, was determined according to the relationship: […]
# Blood cleavage assays were run to confirm that 20 acts as a prodrug and cleaves to produce compound 17 when incubated with human and mouse blood, as described in the general methods. The compound was incubated in human or mouse blood with samples removed over two hours, and analysed by LC MS/MS for presence of 20 and 17 (see FIG. 6). […] Due to the differing responses of 17 and 20 on mass spectrometry it was not possible to quantify the extent of conversion of 20 to 17.
# [3] = test system: LXF 1121L; assay: Monolayer proliferation assay (modified propidium iodide), LXF 1121L; type: cell-based, human; details: average of 2 experiments
# Experimental: as §1, §2, §3, §4, §5, §6, §7
# [4] = test system: CXF HT29; assay: Monolayer proliferation assay (modified propidium iodide), CXF HT29; type: cell-based, human; details: average of 2 experiments
# Experimental: as §1, §2, §3, §4, §5, §6, §7
smiles,measurement,setting,value
"CO[C@H]1C[C@H](C)Cc2cc(cc(OP(=O)(O)O)c2)NC(=O)/C(C)=C/CC[C@H](C)[C@@H](OC(N)=O)/C(C)=C/[C@H](C)[C@H]1O [Compound 20, 4,5-dihydro-11-O-demethyl-15-demethoxy-18,21-didehydro-21-deoxomacbecin-18-phosphate]",Test/Control (%) at drug concentration (μg/mL),"[1]; DU145, 0.01 μg/mL",99%
same,Test/Control (%) at drug concentration (μg/mL),"[1]; DU145, 0.1 μg/mL",53%
same,Test/Control (%) at drug concentration (μg/mL),"[1]; DU145, 1 μg/mL",8%
same,Test/Control (%) at drug concentration (μg/mL),"[1]; DU145, 10 μg/mL",9%
same,Test/Control (%) at drug concentration (μg/mL),"[1]; DU145, 100 μg/mL",3%
same,conversion in blood,[2],act as a prodrug and release 17
same,Test/Control (%) at drug concentration (μg/mL),[3]; 0.01 μg/mL,103%
same,Test/Control (%) at drug concentration (μg/mL),[3]; 0.1 μg/mL,58%
same,Test/Control (%) at drug concentration (μg/mL),[3]; 1 μg/mL,15%
same,Test/Control (%) at drug concentration (μg/mL),[3]; 10 μg/mL,14%
same,Test/Control (%) at drug concentration (μg/mL),[3]; 100 μg/mL,5%
same,Test/Control (%) at drug concentration (μg/mL),"[4]; CXF HT29, 0.01 μg/mL",112%
same,Test/Control (%) at drug concentration (μg/mL),"[4]; CXF HT29, 0.1 μg/mL",43%
same,Test/Control (%) at drug concentration (μg/mL),"[4]; CXF HT29, 1 μg/mL",7%
same,Test/Control (%) at drug concentration (μg/mL),"[4]; CXF HT29, 10 μg/mL",7%
same,Test/Control (%) at drug concentration (μg/mL),"[4]; CXF HT29, 100 μg/mL",5%
